Test results published in paper PMC5589637, “New perspectives of cobalt tris(bipyridine) system: anti-cancer effect and its collateral sensitivity towards multidrug-resistant (MDR) cancers” (Oncotarget, 2017).

What was measured:
[1] = tested on: HeLa (cervical cancer) cells; experiment: MTT cytotoxicity assay, HeLa; assay type: cell-based; conditions: 72 h
Procedure: (§1) All tested compounds were dissolved in DMSO at a final concentration of 50 mmol/L and stored at −20°C before use. Cytotoxicity was assessed by using the 3-(4,5-dimethylthiazol-2-yl)-2, 5-diphenyltetrazolium bromide (MTT) (5.0 mg/ml) assay as previously described. Briefly, 4×10^3 cells per well were seeded in 96-well plates before drug treatments. After overnight culture, the cells were then exposed to different concentrations of selected compounds ([…]) for 72 hours. Cells without drug treatment were used as control. Subsequently, MTT (10 μL) solution was added to each well and incubated at 37°C for 4 hours followed by the addition of 100 μL solubilization buffer (10%SDS in 0.01 mol/L HCl) and overnight incubation. A570 nm was then determined in each well on the next day. The percentage of cell viability was calculated using the following formula: Cell viability (%) = Atreated/Acontrol × 100. Data were obtained from three independent experiments.

[2] = tested on: MCF-7 (breast cancer) cells; experiment: MTT cytotoxicity assay, MCF-7; assay type: cell-based; conditions: MCF-7, MTT, 72 h
Procedure: as §1

[3] = tested on: H1299 (lung cancer) cells; experiment: MTT cytotoxicity assay, H1299; assay type: cell-based, human; conditions: 72 h
Procedure: as §1

[4] = tested on: H1975 (EGFR mutant lung cancer) cells; experiment: MTT cytotoxicity assay, H1975; assay type: cell-based; conditions: 72 h
Procedure: as §1

[5] = tested on: A549 (EGFR wild-type lung cancer) cells; experiment: MTT cytotoxicity assay, A549; assay type: cell-based; conditions: 72 h
Procedure: as §1

[6] = tested on: LLC-1 (mouse lung cancer) cells; experiment: MTT cytotoxicity assay, LLC-1; assay type: cell-based; conditions: LLC-1, MTT, 72 h
Procedure: as §1

[7] = tested on: HepG2 (liver cancer) cells; experiment: MTT cytotoxicity assay, HepG2; assay type: cell-based; conditions: 72 h
Procedure: as §1

[8] = tested on: Hep3B (liver cancer) cells; experiment: MTT cytotoxicity assay, Hep 3B; assay type: cell-based; conditions: 72 h
Procedure: as §1

[9] = tested on: normal human LO2 hepatocytes; experiment: MTT cytotoxicity assay, LO2; assay type: cell-based; conditions: 72 h
Procedure: as §1

[10] = tested on: MCF-7 taxol-sensitive cancer cells; experiment: MTT cytotoxicity, taxol-sensitive MCF-7; assay type: cell-based; conditions: 72 h
Source text: (§2) All cells were obtained from the American Type Culture Collection (Rockville, MD, USA) unless otherwise specified. Immortalized wild-type and Atg7-deficient mouse embryonic fibroblasts (MEFs) were kindly provided by Professor Masaaki Komatsu (Juntendo University, School of Medicine, Japan). Taxol-resistant types of MCF-7, HCT-8, A549 cancers cells and cisplatin-resistant SGC7901 cancer cells were purchased from KeyGEN BioTECH, China. Cisplatin-sensitive or –resistant A2780, OV2008 and C13 cancer cells were kindly provided by Prof. Benjamin Tsang (Department of Obstetrics and Gynecology and Department of Cellular and Molecular Medicine, University of Ottawa, Canada). HCT116 p53^+/+ and p53^−/− isogenic human colon cancer cells were kindly provided by Professor Bert Vogelstein (Ludwig Center at Johns Hopkins, Howard Hughes Medical Institute, USA). All media were supplemented with 10% fetal bovine serum and antibiotics penicillin (50 U/ml) and streptomycin (50 μg/ml; Invitrogen, Paisley, Scotland, UK). All cell cultures were incubated at 37°C in a 5% humidified CO2 incubator.
as §1

[11] = tested on: MCF-7 taxol-resistant cancer cells; experiment: MTT cytotoxicity, taxol-resistant MCF-7; assay type: cell-based
Source text: as §2, §1

[12] = tested on: HCT-8 taxol-sensitive cancer cells; experiment: MTT cytotoxicity, taxol-sensitive HCT-8; assay type: cell-based; conditions: 72 h
Source text: as §2, §1

[13] = tested on: HCT-8 taxol-resistant cancer cells; experiment: MTT cytotoxicity, taxol-resistant HCT-8; assay type: cell-based
Source text: as §2, §1

[14] = tested on: A549 taxol-sensitive cancer cells; experiment: MTT cytotoxicity, taxol-sensitive A549; assay type: cell-based; conditions: 72 h
Source text: as §2, §1

[15] = tested on: A549 taxol-resistant cancer cells; experiment: MTT cytotoxicity, taxol-resistant A549; assay type: cell-based
Source text: as §2, §1

[16] = tested on: A2780 cisplatin-sensitive cancer cells; experiment: MTT cytotoxicity, cisplatin-sensitive A2780; assay type: cell-based; conditions: 72 h
Source text: as §2, §1

[17] = tested on: A2780 cisplatin-resistant cancer cells; experiment: MTT cytotoxicity, cisplatin-resistant A2780; assay type: cell-based; conditions: for IC50: A2780 cisplatin-resistant, MTT, 72 h; for Resistant Factor, A2780: cisplatin-resistant over cisplatin-sensitive IC50, A2780
Source text: as §2, §1

[18] = tested on: SGC-7901 cisplatin-sensitive cancer cells; experiment: MTT cytotoxicity, cisplatin-sensitive SGC-7901; assay type: cell-based; conditions: 72 h
Source text: as §2, §1

[19] = tested on: SGC-7901 cisplatin-resistant cancer cells; experiment: MTT cytotoxicity, cisplatin-resistant SGC-7901; assay type: cell-based; conditions: for IC50: SGC-7901 cisplatin-resistant, MTT, 72 h; for Resistant Factor, SGC-7901: cisplatin-resistant over cisplatin-sensitive IC50, SGC-7901
Source text: as §2, §1

[20] = tested on: OV2008 (cisplatin-sensitive) cells; experiment: MTT cytotoxicity, OV2008 (cisplatin-sensitive); assay type: cell-based; conditions: 72 h, read-out: IC50 value, cisplatin-sensitive cancer, OV2008
Source text: as §2, §1

[21] = tested on: C13 (cisplatin-resistant) cells; experiment: MTT cytotoxicity, C13 (cisplatin-resistant); assay type: cell-based; conditions: for IC50: C13 (cisplatin-resistant), MTT, 72 h, read-out: IC50 value, cisplatin-resistant cancer, C13; for Resistant Factor, OV2008/C13 pair: C13 (resistant) IC50 over OV2008 (sensitive) IC50
Source text: as §2, §1

[22] = tested on: HCT116 p53^+/+ colon cancer cells; experiment: MTT cytotoxicity, HCT116 p53+/+; assay type: cell-based, human; conditions: 72 h
Source text: as §2, §1

[23] = tested on: HCT116 p53^-/- colon cancer cells; experiment: MTT cytotoxicity, HCT116 p53-/-; assay type: cell-based, human
Source text: as §2, §1

[24] = Pharmacokinetic study (HPLC-MS of blood samples); assay type: in vivo; conditions: male C57BL/6 mice
Procedure: Pharmacokinetic study of cobalt complex 2 was performed in male C57BL/6 mice by the dosage of 40 mg/kg. The source of mouse and practice of husbandry were the same as described in the methodology section of LLC-1 Xenograft Tumor experiment. Cobalt complex 2 was diluted in the formula (PEG400: H2O: Ethanol = 6:3:1) and administered by intraperitoneal in a volume of 0.005 mL/g bodyweight. After dosing, blood samples were collected to sodium heparin anticoagulant tube at different time points (5, 15, 30 min, and then 1, 2, 4, 8, 12 and 24 hours); 4 mice were used for each time point. Approximately 200 μL of blood was collected via orbital vein from each anesthetized mouse by isoflurane. Plasma was separated by centrifugation at 3000 g for 10 minutes at 4°C. The plasma was protected and stored at −80°C until analyzed by liquid chromatography-mass spectrometry/mass spectrometry (LC-MS/MS) for quantification.
Plasma samples were thawed at room temperature and then vortexed to ensure sample solution homogeneity. Firstly, a 20 μL aliquot of each plasma sample were loaded into 1.5 mL tube, 100 μL acetonitrile was added, vortexed then centrifuged at 13000 rpm for 10 min. the supernatant was collected. The plasma cobalt complex 2 concentrations were quantified using Thermo HPLC Ultimate 3000 system. The compound in plasma samples were analyzed by using the Agilent Zorbax Eclipse Plus C-18 column with a particle size of 1.8 μm. The parameters of the gradient elution program were applied as follows: mobile phase A (0.1% formic acid in water) and mobile phase B acetonitrile: 0–5.5 min, 20% B; 5.5–7 min, 90% B; 7–10 min, 20% B. The column and autosampler temperature were maintained at 40 and 4 °C, respectively. The gas temperature was set 320 °C with flow rate (0.8 mL/min), gases were set at 10 psi for the nebulizer, capillary, 3500 V.

[25] = tested on: cisplatin-resistant cancer cells (A2780, SGC-7901, OV2008 and C13); experiment: MTT cytotoxicity, summary over cisplatin-sensitive/resistant pairs; assay type: cell-based; conditions: over A2780, SGC-7901, OV2008/C13 pairs
Procedure: as §1

Cc1ccnc(-c2cc(C)ccn2)c1.Cc1ccnc(-c2cc(C)ccn2)c1.Cc1ccnc(-c2cc(C)ccn2)c1.F[P-](F)(F)(F)(F)F.F[P-](F)(F)(F)(F)F.[Co+2] [complex 1, [Co^II(4,4’-Me2-bpy)3](PF6)2]
IC50 [1]: 10.1 µM
IC50 [2]: 15.4 µM
IC50 [3]: 3.43 µM
IC50 [4]: 15.4 µM
IC50 [5]: 9.45 µM
IC50 [6]: 2.79 µM
IC50 [7]: 7.39 µM
IC50 [8]: 4.06 µM
IC50 [9]: 13.5 µM
IC50 [10]: 4.62 µM
Resistant Factor, MCF-7 ([11]; IC50 of taxol-resistant cells over IC50 of taxol-sensitive cells, MCF-7): 0.54
IC50 ([11]; MCF-7 taxol-resistant, MTT, 72 h): 2.51 µM
IC50 [12]: 3.13 µM
IC50 ([13]; HCT-8 taxol-resistant, MTT, 72 h): 1.16 µM
Resistant Factor, HCT-8 ([13]; IC50 of taxol-resistant cells over IC50 of taxol-sensitive cells, HCT-8): 0.37
IC50 [14]: 9.59 µM
IC50 ([15]; A549 taxol-resistant, MTT, 72 h): 2.37 µM
Resistant Factor, A549 ([15]; IC50 of taxol-resistant cells over IC50 of taxol-sensitive cells, A549): 0.25
IC50 [16]: 11.9 µM
IC50 [17]: 11.2 µM
Resistant Factor, A2780 [17]: 0.94
IC50 [18]: 11.7 µM
IC50 [19]: 17.6 µM
Resistant Factor, SGC-7901 [19]: 1.50
IC50 [20]: 7.06 µM
IC50 [21]: 15.6 µM
Resistant Factor, OV2008/C13 pair [21]: 2.21
IC50 [22]: 17.1 µM
IC50 ([23]; HCT116 p53-/-, MTT, 72 h): 8.89 µM
Resistant Factor, HCT116 p53-/- vs p53+/+ ([23]; IC50 p53-/- over IC50 p53+/+): 0.52

Cc1ccnc(-c2cc(C)ccn2)c1 [Me2-bpy]
species detected in blood samples by HPLC-MS ([24]; 40 mg/kg intraperitoneal of complex 2, 5 min to 24 hours): only the free ligand of Me2-bpy was detected
free ligand signal (m/z 185.1071) in samples after 2-hour time interval ([24]; 40 mg/kg intraperitoneal of complex 2, after 2 hours): very weak or no detectable signal

N.N.[Cl][Pt][Cl] [Cisplatin, cis-[Pt^II(NH3)2Cl2], reference compound]
IC50 [16]: 15.1 µM
IC50 [17]: > 200 µM
Resistant Factor, A2780 [17]: > 13.25
IC50 [18]: 3.92 µM
IC50 [19]: 43 µM
Resistant Factor, SGC-7901 [19]: 10.97
IC50 [20]: 18.2 µM
IC50 [21]: > 200 µM
Resistant Factor, OV2008/C13 pair [21]: > 11.0
resistant factor in cisplatin-resistant cancers (summary) [25]: up to 13.25
